Measurements: patent publication US20200055848A1, “FURANONE DERIVATES AND METHODS OF USE THEREOF” (CARNA BIOSCIENCES, INC., priority 2016, published 2020)
Where two headings read alike, the source gives them in different places.

Columns and labels:
[1] = biological target: T1, human Cdc7/human ASK complex protein (Homo sapiens, UniProt O00311); test: Cdc7/ASK enzymatic assay; assay type: biochemical
T1 construct: purchased Carna Biosciences, Inc
Description: Measurement of Cdc7 kinase activity was carried out using MSA assay kit (QuickScout™ Screening Assist Kit, Carna Biosciences, Inc.). Assay buffer (20 mM HEPES, 0.01% Triton X-100™, 2 mM dithiothreitol, pH 7.5) was used to prepare a substrate mixture solution comprising 4 μM of kinase-reaction substrate (FITC-labeled MCM2 peptide), 40 mM MgCl2, and 4 times concentrations of final targeted ATP (5, 100, and 1,000 μM). The enzyme supplied in the kit (human Cdc7/human ASK complex protein) was diluted into the assay buffer to prepare a 7 nM solution (enzyme solution). The compound stock solution was prepared by diluting a 10 mM DMSO solution into the assay buffer (final 4% DMSO). The kinase reaction was performed by mixing of 5 μL of the compound solution, 5 μL of the substrate mixture solution, and 10 μL of the enzyme solution in a 384-well plate. For the pre-incubation assay, the compound solution and the enzyme solution were pre-mixed and incubated at ambient temperature for 30 min before adding into the substrate mixture solution to start enzymatic reaction. After the reaction at 25° C. for 5 hours, 60 μL of the termination buffer (supplied in the kit) was added to stop the reaction. The phosphorylation of substrate was measured using a LabChip EZ Reader II system (Caliper Life Sciences). The percent inhibition (%) by a tested compound was calculated according to the following formula:
Percent inhibition (%)=(1−(C−A)/(B−A))×100
A represents P/(P+S) for a blank well, B represents P/(P+S) for a solvent well, and C represents P/(P+S) for a compound-added well. S: the peak heights of the separated substrate, P: phosphorylated substrate.
The IC50 value of tested compound was calculated by regression analysis of the percent inhibition values versus the (logarithmic) concentration of the tested compound.

Cdc7 = Cdc7 (Homo sapiens, UniProt O00311); test: Rapid dilution assay (dissociation rate from Cdc7); assay type: biochemical
Text: FIG. 2 is a graph of the results obtained from the rapid dilution assay for Cdc7 inhibitors. Recovery of enzymatic activity was monitored by formation of the phosphorylated product. DMSO control (closed circle), compound 1 (open triangle), compound 13 (open square).
To better understand the observed time dependent inhibition of these compounds, compound 13 was subjected to the rapid dilution assay to study dissociation rate, and compared with compound 1. The inhibitor-enzyme mixture was rapidly diluted into the assay buffer containing the substrate and a high concentration of ATP, and then the phosphorylated product formation was monitored over 500 min of time course.

panel of 121 kinases = test: Kinase selectivity screen over a panel of 121 kinases; assay type: biochemical; conditions: 1 mM ATP with preincubation
Description: (§1) To investigate the representative kinase selectivity of these compounds at physiological ATP levels, compound 13 was screened over a panel of 121 kinases in the presence of 1 mM ATP with preincubation method. […] IC50 values of hit kinases were determined to confirm the selectivity of compound 13.

CLK1 = CLK1 (Homo sapiens, UniProt P49759); test: Kinase selectivity IC50, CLK1; assay type: biochemical
Description: as §1

CLK2 = CLK2 (Homo sapiens, UniProt P49760); test: Kinase selectivity IC50, CLK2; assay type: biochemical
Description: as §1

GSK3α = GSK3α (Homo sapiens, UniProt P49840); test: Kinase selectivity IC50, GSK3α; assay type: biochemical
Description: as §1

GSK3β = GSK3β (Homo sapiens, UniProt P49841); test: Kinase selectivity IC50, GSK3β; assay type: biochemical
Description: as §1

Erk2 = Erk2 (Homo sapiens, UniProt P28482); test: Kinase selectivity IC50, Erk2; assay type: biochemical
Description: as §1

p70S6K = p70S6K (Homo sapiens, UniProt P23443); test: Kinase selectivity IC50, p70S6K; assay type: biochemical
Description: as §1

Colo-205 cells [2] = test: Cell cycle analysis (flow cytometry); assay type: cell-based, human; conditions: 48 hours, 0.33 and 1 μM
Description: FIGS. 3A and 3B illustrate the effects of Cdc7 inhibition by compound 13 in Colo-205 cells. a) Western blot analysis of extracts prepared from Colo-205 cells at 48 h after treatment with DMSO control (0 μM) or compound 13 at indicated concentrations. b) […] analysis of Colo-205 cells treated for 48 h with DMSO control (0 μM) and the indicated concentration of compound 13. DNA content was measured by FACS after propidium iodide staining.
Colo-205 cells (5×10^5) were seeded in six-well plates and treated with different concentrations of a test compound. After 48 h, the cells were harvested and suspended in 0.5 mL of D-PBS. The cells were then fixed by adding 1 mL of ice-cold ethanol, and the samples were kept at −30° C. The cells were resuspended in 200 μL PI solution (20 μg/mL propydium iodide and 100 μg/mL RNaseA of D-PBS), and incubated in the dark for 1 h at room temperature. Cell cycle analyses were performed using FACS Calibur flow cytometer (BD Biosciences).

Colo-205 cells [3] = test: Anti-proliferation activity in Colo-205 cells; assay type: cell-based; conditions: Homo sapiens, read-out: reduction of cell proliferation IC50
[4] = 1 mM ATP with preincubation, mean of duplicated assays

## CCOC(=O)C1=C(Nc2ccccc2Cl)OC(=Cc2c[nH]c3ncccc23)C1=O [Compound 13, Ethyl 5-((1H-pyrrolo[2,3-b]pyridin-3-yl)methylene)-2-((2-chlorophenyl)amino)-4-oxo-4,5-dihydrofuran-3-carboxylate]
[1]; 5 μM ATP, mean of duplicated assays, read-out: Cdc7 IC50
  IC50: 2.4 nM
[1]; 30 min pre-incubation with Cdc7, various ATP concentrations up to 1 mM
  pre-incubation effect on Cdc7 inhibition: inhibitory potencies were sustained even in the presence of 1 mM ATP
[1]; IC50 for each kinase versus Cdc7
  Fold selectivity, Cdc7: 1.0 fold
[1]; in the presence of 1 mM ATP, without pre-incubation, read-out: Cdc7 IC50
  IC50: 191 nM
[1]; kinase selectivity table, 1 mM ATP with preincubation, mean of duplicated assays, read-out: IC50 (nM), Cdc7
  IC50: 0.6 nM
[1]; various ATP concentrations, without pre-incubation
  ATP competition assay: effect of ATP concentration on inhibitory potency: ATP-dependent proportional decreases in inhibitory potencies
Cdc7; monitored over 500 min
  phosphorylated product formation after rapid dilution: much reduced rate
Cdc7; rapid dilution, high concentration of ATP, read-out: off-rate from Cdc7 (koff) (converted)
  koff: 5.83e-05 s⁻¹
Cdc7; rapid dilution, high concentration of ATP, read-out: t1/2 of dissociation from Cdc7
  residence time: 197 min
Panel of 121 kinases
  selectivity in favor of Cdc7 over CLKs: 8 fold
Panel of 121 kinases; >50% inhibition at 0.1 μM, 121 kinases
  share of the kinase panel inhibited: 7%
CLK1; [4]
  IC50: 5 nM
CLK1; IC50 versus Cdc7
  Fold selectivity, CLK1: 8.3 fold
CLK2; [4]
  IC50: 5.3 nM
CLK2; IC50 versus Cdc7
  Fold selectivity, CLK2: 8.8 fold
GSK3α; [4]
  IC50: 37 nM
GSK3α; IC50 versus Cdc7
  Fold selectivity, GSK3α: 61 fold
GSK3β; [4]
  IC50: 51 nM
GSK3β; IC50 versus Cdc7
  Fold selectivity, GSK3β: 85 fold
Erk2; [4]
  IC50: 61 nM
Erk2; IC50 versus Cdc7
  Fold selectivity, Erk2: 102 fold
p70S6K; [4]
  IC50: 399 nM
p70S6K; IC50 versus Cdc7
  Fold selectivity, p70S6K: 665 fold
Colo-205 cells [2]
  G1 phase peak: Marked decreases
  sub-G1 population: significant increase
Colo-205 cells [3]
  IC50: 170 nM
